Assay results published in ChEMBL document CHEMBL5214900, “Design, Synthesis, and Biological Evaluation of Membrane-Active Bakuchiol Derivatives as Effective Broad-Spectrum Antibacterial Agents” (J Med Chem, 2021).
Values after ≈ are worked out from the molar mass of the structure shown.

Tests used:
[1] = tested on: Staphylococcus aureus; assay: Antibacterial activity against methicillin-resistant Staphylococcus aureus NCTC10442 assessed as inhibition of bacterial growth incubated for 24 hrs by CLSI based broth dilution method; format: functional
[2] = tested on: Staphylococcus aureus; assay: Antibacterial activity against Staphylococcus aureus ATCC 29213 assessed as inhibition of bacterial growth incubated for 24 hrs by CLSI based broth dilution method; format: functional
[3] = tested on: Staphylococcus aureus; assay: Antibacterial activity against Staphylococcus aureus ATCC 29213 in C57BL/6 mouse model of bacterial keratitis assessed as log reduction in number of viable bacterial colonies in infected cornea at 50 mg/ml, TOP administered 4 times a day for 3 consecutive days; format: functional; conditions: time 3 day
[4] = tested on: Staphylococcus aureus; assay: Bactericidal activity against Staphylococcus aureus ATCC 29213 assessed as log reduction in viable bacteria at 8 times MIC measured after 8 hrs by time-killing assay; format: functional
[5] = tested on: Staphylococcus aureus; assay: Antibacterial activity against methicillin-resistant Staphylococcus aureus N315 assessed as inhibition of bacterial growth incubated for 24 hrs by CLSI based broth dilution method; format: functional
[6] = tested on: Escherichia coli; assay: Antibacterial activity against Escherichia coli ATCC 25922 assessed as inhibition of bacterial growth incubated for 24 hrs by CLSI based broth dilution method; format: functional
[7] = Hemolytic activity in rabbit RBC measured after 1 hrs by multimode reader assay; format: toxicity, cell-based, Oryctolagus cuniculus, Erythrocyte; conditions: rabbit red blood cells (erythrocytes)
[8] = Dissociation constant, pKa of compound by potentiometric titration method; format: physicochemical
[9] = tested on: Acinetobacter baumannii; assay: Antibacterial activity against Acinetobacter baumannii ATCC 17978 assessed as fold increase in MIC incubated for 24 hrs in presence of 140 mM Na+ by CLSI based broth dilution method; format: functional
[10] = tested on: Escherichia coli; assay: Antibacterial activity against Escherichia coli ATCC 25922 assessed as fold increase in MIC incubated for 24 hrs in presence of 140 mM Na+ by CLSI based broth dilution method; format: functional
[11] = tested on: Staphylococcus aureus; assay: Antibacterial activity against Staphylococcus aureus ATCC 29213 assessed as fold increase in MIC incubated for 24 hrs in presence of 140 mM Na+ by CLSI based broth dilution method; format: functional
[12] = tested on: Acinetobacter baumannii; assay: Antibacterial activity against Acinetobacter baumannii ATCC 17978 assessed as fold increase in MIC incubated for 24 hrs in presence of 2.5 mM Ca2+ by CLSI based broth dilution method; format: functional
[13] = tested on: Escherichia coli; assay: Antibacterial activity against Escherichia coli ATCC 25922 assessed as fold increase in MIC incubated for 24 hrs in presence of 4.5 mM K+ by CLSI based broth dilution method; format: functional
[14] = tested on: Acinetobacter baumannii; assay: Antibacterial activity against Acinetobacter baumannii ATCC 17978 assessed as fold increase in MIC incubated for 24 hrs in presence of 4.5 mM K+ by CLSI based broth dilution method; format: functional
[15] = tested on: Acinetobacter baumannii; assay: Antibacterial activity against Acinetobacter baumannii ATCC 17978 assessed as inhibition of bacterial growth incubated for 24 hrs by CLSI based broth dilution method; format: functional
[16] = tested on: Escherichia coli; assay: Antibacterial activity against Escherichia coli ATCC 25922 assessed as fold increase in MIC incubated for 24 hrs in presence of 1 mM Mg2+ by CLSI based broth dilution method; format: functional
[17] = tested on: Staphylococcus aureus; assay: Antibacterial activity against Staphylococcus aureus NCTC10442 assessed as fold increase in MIC incubated for 24 hrs in presence of 2.5 mM Ca2+ by CLSI based broth dilution method; format: functional
[18] = tested on: Staphylococcus aureus; assay: Antibacterial activity against Staphylococcus aureus NCTC10442 assessed as fold increase in MIC incubated for 24 hrs in presence of 140 mM Na+ by CLSI based broth dilution method; format: functional
[19] = tested on: Pseudomonas aeruginosa; assay: Antibacterial activity against Pseudomonas aeruginosa ATCC 9027 assessed as inhibition of bacterial growth incubated for 24 hrs by CLSI based broth dilution method; format: functional
[20] = tested on: Klebsiella pneumoniae; assay: Antibacterial activity against Klebsiella pneumoniae ATCC 14581 assessed as inhibition of bacterial growth incubated for 24 hrs by CLSI based broth dilution method; format: functional
[21] = tested on: Staphylococcus aureus; assay: Antibacterial activity against Staphylococcus aureus ATCC 29213 assessed as fold increase in MIC incubated for 24 hrs in presence of 2.5 mM Ca2+ by CLSI based broth dilution method; format: functional
[22] = tested on: Acinetobacter baumannii; assay: Antibacterial activity against Acinetobacter baumannii ATCC 17978 assessed as fold increase in MIC incubated for 24 hrs in presence of 1 mM Mg2+ by CLSI based broth dilution method; format: functional
[23] = tested on: Staphylococcus aureus; assay: Antibacterial activity against Staphylococcus aureus NCTC10442 assessed as fold increase in MIC incubated for 24 hrs in presence of 1 mM Mg2+ by CLSI based broth dilution method; format: functional
[24] = tested on: Staphylococcus aureus; assay: Antibacterial activity against Staphylococcus aureus ATCC 29213 assessed as fold increase in MIC incubated for 24 hrs in presence of 4.5 mM K+ by CLSI based broth dilution method; format: functional
[25] = tested on: Klebsiella pneumoniae; assay: Antibacterial activity against Klebsiella pneumoniae ATCC 10031 assessed as inhibition of bacterial growth incubated for 24 hrs by CLSI based broth dilution method; format: functional
[26] = tested on: Staphylococcus aureus; assay: Antibacterial activity against Staphylococcus aureus NCTC10442 assessed as fold increase in MIC incubated for 24 hrs in presence of 4.5 mM K+ by CLSI based broth dilution method; format: functional
[27] = tested on: Escherichia coli; assay: Antibacterial activity against Escherichia coli ATCC 25922 assessed as fold increase in MIC incubated for 24 hrs in presence of 2.5 mM Ca2+ by CLSI based broth dilution method; format: functional
[28] = tested on: Acinetobacter baumannii; assay: Antibacterial activity against Acinetobacter baumannii R2889 assessed as inhibition of bacterial growth incubated for 24 hrs by CLSI based broth dilution method; format: functional
[29] = tested on: Staphylococcus aureus; assay: Antibacterial activity against Staphylococcus aureus ATCC 29213 assessed as fold increase in MIC incubated for 24 hrs in presence of 1 mM Mg2+ by CLSI based broth dilution method; format: functional
[30] = tested on: Staphylococcus aureus; assay: Induction of drug resistance in Staphylococcus aureus ATCC 29213 assessed as fold change in MIC measured after 19 passages by CLSI based broth dilution method; format: functional
[31] = tested on: Escherichia coli; assay: Induction of drug resistance in Escherichia coli ATCC 25922 assessed as fold change in MIC measured after 19 passages by CLSI based broth dilution method; format: functional
[32] = tested on: Escherichia coli; assay: Bactericidal activity against Escherichia coli ATCC 25922 assessed as log reduction in viable bacteria at 8 times MIC measured after 2 hrs by time-killing assay; format: functional

SMILES	MIC [1]	MIC [2]	MIC [5]	MIC [6]	HC50 at 1 h [7]	fold change (FC) [9]	fold change (FC) [10]	fold change (FC) [11]	fold change (FC) [12]	fold change (FC) [13]	fold change (FC) [14]	MIC [15]	fold change (FC) [16]	fold change (FC) [17]	fold change (FC) [18]	MIC [19]	MIC [20]	fold change (FC) [21]	fold change (FC) [22]	fold change (FC) [23]	further results
CN[C@H](CC(C)C)C(=O)N[C@H]1C(=O)N[C@@H](CC(N)=O)C(=O)N[C@H]2C(=O)N[C@H]3C(=O)N[C@H](C(=O)N[C@H](C(=O)O)c4cc(O)cc(O)c4-c4cc3ccc4O)[C@H](O)c3ccc(c(Cl)c3)Oc3cc2cc(c3O[C@@H]2O[C@H](CO)[C@@H](O)[C@H](O)[C@H]2O[C@H]2C[C@](C)(N)[C@H](O)[C@H](C)O2)Oc2ccc(cc2Cl)[C@H]1O [VANCOMYCIN]	1.56 µg/mL (≈ 1.08 µM)	0.78 µg/mL (≈ 0.538 µM)	1.56 µg/mL (≈ 1.08 µM)	–	–	–	–	–	–	–	–	–	–	–	–	–	–	–	–	–	log(activity) [3]: 6.05; log(activity) [4]: 1.22
C=C[C@@](C)(/C=C/c1ccc(OCCCCN2CCSCC2)cc1)CCC=C(C)C	> 50 µg/mL	> 50 µg/mL	> 50 µg/mL	> 100 µg/mL	> 200 µg/mL	–	–	–	–	–	–	–	–	–	–	–	–	–	–	–	pKa [8]: 8.41
C=C[C@@](C)(/C=C/c1ccc(OCCCCN(C)CCCN(C)CCCNC)cc1)CCC=C(C)C	1.56 µg/mL (≈ 3.22 µM)	1.56 µg/mL (≈ 3.22 µM)	0.78 µg/mL (≈ 1.61 µM)	1.56 µg/mL (≈ 3.22 µM)	56.6 µg/mL	<2	<2	<2	<2	<2	<2	3.12 µg/mL (≈ 6.46 µM)	<2	<2	<2	3.12 µg/mL (≈ 6.46 µM)	1.56 µg/mL (≈ 3.22 µM)	<2	<2	<2	fold change (FC) [24]: <2; MIC [25]: 1.56 µg/mL (≈ 3.22 µM); fold change (FC) [26]: <2; fold change (FC) [27]: <2; MIC [28]: 3.12 µg/mL (≈ 6.46 µM); fold change (FC) [29]: <2
CCn1cc(C(=O)O)c(=O)c2cc(F)c(N3CCNCC3)cc21	–	–	–	–	–	–	–	–	–	–	–	–	–	–	–	–	–	–	–	–	fold change (FC) [30]: 32
C=C[C@@](C)(/C=C/c1ccc(OCCCCN)cc1)CCC=C(C)C	1.56 µg/mL (≈ 4.76 µM)	1.56 µg/mL (≈ 4.76 µM)	0.78 µg/mL (≈ 2.38 µM)	12.5 µg/mL (≈ 38.2 µM)	65.9 µg/mL	–	–	–	–	–	–	–	–	–	–	–	–	–	–	–	pKa [8]: 9.54
C=C[C@@](C)(/C=C/c1ccc(OCCCCN2CCCNCCNCCCNCC2)cc1)CCC=C(C)C	0.78 µg/mL (≈ 1.53 µM)	0.78 µg/mL (≈ 1.53 µM)	0.78 µg/mL (≈ 1.53 µM)	3.12 µg/mL (≈ 6.12 µM)	62.7 µg/mL	<2	<2	<2	<2	<2	<2	3.12 µg/mL (≈ 6.12 µM)	<2	<2	<2	12.5 µg/mL (≈ 24.5 µM)	3.12 µg/mL (≈ 6.12 µM)	<2	<2	<2	fold change (FC) [24]: <2; MIC [25]: 1.56 µg/mL (≈ 3.05 µM); fold change (FC) [26]: <2; fold change (FC) [27]: <2; MIC [28]: 3.12 µg/mL (≈ 6.12 µM); fold change (FC) [29]: <2
CC1(C)S[C@@H]2[C@H](NC(=O)[C@H](N)c3ccc(O)cc3)C(=O)N2[C@H]1C(=O)O [AMOXICILLIN]	–	–	–	–	–	–	–	–	–	–	–	–	–	–	–	–	–	–	–	–	fold change (FC) [31]: 16; log(activity) [32]: 1.22
C=C[C@@](C)(/C=C/c1ccc(O)cc1)CCC=C(C)C [BAKUCHIOL]	3.12 µg/mL (≈ 12.2 µM)	6.25 µg/mL (≈ 24.4 µM)	3.12 µg/mL (≈ 12.2 µM)	> 100 µg/mL	89.7 µg/mL	–	–	–	–	–	–	> 50 µg/mL	–	–	–	> 50 µg/mL	> 50 µg/mL	–	–	–	MIC [25]: 12.5 µg/mL (≈ 48.8 µM); MIC [28]: > 50 µg/mL
C=C[C@@](C)(/C=C/c1ccc(OCCCCNCCN(CCN)CCN)cc1)CCC=C(C)C	0.78 µg/mL (≈ 1.71 µM)	0.78 µg/mL (≈ 1.71 µM)	0.78 µg/mL (≈ 1.71 µM)	3.12 µg/mL (≈ 6.84 µM)	32.9 µg/mL	<2	<2	<2	<2	<2	<2	6.25 µg/mL (≈ 13.7 µM)	<2	<2	<2	3.12 µg/mL (≈ 6.84 µM)	1.56 µg/mL (≈ 3.42 µM)	<2	<2	<2	fold change (FC) [24]: <2; MIC [25]: 1.56 µg/mL (≈ 3.42 µM); fold change (FC) [26]: <2; fold change (FC) [27]: <2; MIC [28]: 6.25 µg/mL (≈ 13.7 µM); fold change (FC) [29]: <2
C=C[C@@](C)(/C=C/c1ccc(OCCCCN2CCNCCNCCNCCNCC2)cc1)CCC=C(C)C	1.56 µg/mL (≈ 2.97 µM)	1.56 µg/mL (≈ 2.97 µM)	0.78 µg/mL (≈ 1.48 µM)	6.25 µg/mL (≈ 11.9 µM)	75.2 µg/mL	<2	<2	<2	<2	<2	<2	–	<2	<2	<2	–	–	<2	<2	<2	fold change (FC) [24]: <2; fold change (FC) [26]: <2; fold change (FC) [27]: <2; fold change (FC) [29]: <2
C=C[C@@](C)(/C=C/c1ccc(OCCCCNC(=N)N)cc1)CCC=C(C)C	3.12 µg/mL (≈ 8.46 µM)	3.12 µg/mL (≈ 8.46 µM)	1.56 µg/mL (≈ 4.22 µM)	25 µg/mL (≈ 67.6 µM)	75.7 µg/mL	–	–	–	–	–	–	–	–	–	–	–	–	–	–	–	pKa [8]: 11.4
